In US20260347372A1, “SMALL MOLECULE INHIBITORS OF KRAS G12D MUTANT” (MERCK SHARP & DOHME LLC, priority 2023, published 2026):

Legend:
AsPC-1 cells = biological target: T1, AsPC-1 cells (Homo sapiens, UniProt P01116, G12D); assay: Cellular phospho-ERK assay, AsPC-1 cells (KRAS G12D); format: cell-based; conditions: 2 hours, read-out: AsPC1 pERK IC50
T1 construct: p-ERK/total ERK AlphaSureFire read-out
Procedure: Procedure for Cellular Phospho-ERK Assay in KRAS Wild Type and Mutant (G12D, G12V) Cell Lines
PANC08.13 cells (ATCC® CRL-2551™), containing homozygous KRAS-G12D activating mutation, were cultured in growth medium made of RPMI1640-GlutaMAX™-I (ThermoFisher Scientific 61870) containing 15% heat inactivated fetal bovine serum (ThermoFisher Scientific 10091148)). AsPC-1 cells (ATCC® CRL-1682™), containing homozygous KRAS-G12D activating mutation, were cultured in T150 flask in growth medium (RPMI medium 1640-GlutaMAX™-I (ThermoFisher Scientific 61870) containing 10% fetal bovine serum (ThermoFisher Scientific 10091148)).
Cells for the assay were harvested in growth medium after TrypLE (ThermoFisher scientific 12604021) digestion and were seeded in a 384-well collagen coated cell culture plate (Corning 356702) at a density of 10,000-15,000 cells/20 μL/well, and incubated at 37° C., 5% CO2 overnight. The compound (with 10 mM stock concentration) dose-response titrations were prepared [30 μM final ERK detection assay concentration and 1:3 dilutions, 10-point dose response] and appropriate amounts (270 nL) of test compounds were dispensed in a 384-well intermediate plate using an Echo 550 liquid handler. 30 μL/well of RPMI medium 1640-GlutaMAX™-I was added to the intermediate plate and the contents of the intermediate plate (10 μL/well) were then transferred to the 384-well collagen coated cell culture plate, which was incubated at 37° C., 5% CO2 for 2 hours. After removal of medium from the collagen coated cell culture plate, cells were lysed in lysis buffer from Alpha SureFire® Ultra™ Multiplex p-ERK and total ERK assay kit (PerkinElmer MPSU-PTERK) containing Halt™ Protease and Phosphatase inhibitor cocktail (ThermoFisher Scientific 78446) at room temperature with constant shaking at 300 rpm for 30 minutes. The cell lysates were then transferred to an OptiPlate-384 plate (PerkinElmer 6005620), and the phosphorylation of ERK (p-ERK) and total ERK levels were detected by Alpha SureFire® Ultra™ Multiplex p-EEK kit and total ERK assay kit (PerkinElmer MPSU-PTERK) following the manufacturer's protocol. Assay plates were read on a EnVision Multimode Plate Reader (PerkinElmer), and the ratio of p-ERK vs. total ERK in each well was used as the final readout. Dose response curves were analyzed using a 4-parameter logistic model to calculate IC50 values using Spotfire software.

KRAS G12D = KRAS G12D (Homo sapiens, UniProt P01116, G12D); assay: SOS-catalyzed nucleotide exchange assay, KRAS G12D (Procedure A); format: biochemical; conditions: guanine nucleotide exchange (GNE)
Sequence of KRAS G12D (P01116 with tags, fused parts or gaps isoform P01116-2 G12D): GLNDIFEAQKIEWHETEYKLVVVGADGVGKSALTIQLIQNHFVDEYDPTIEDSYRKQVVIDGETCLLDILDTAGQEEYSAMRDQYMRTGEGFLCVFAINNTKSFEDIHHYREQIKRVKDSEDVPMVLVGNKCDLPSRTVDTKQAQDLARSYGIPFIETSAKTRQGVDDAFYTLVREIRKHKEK
Description: (§1) Procedure for SOS-Catalyzed Nucleotide Exchange Assay for KRAS-WT, G12C/D/V, G13D, HRAS, and NRAS (Procedure A)
(§2) Recombinant KRAS-G12C protein used in this assay has an additional triple mutation (C51S/C80L/C118S). Whereas KRAS-WT, G12D/V, G13D, HRAS and NRAS are in context of their WT protein sequence background. Specifically, the SOS-catalyzed nucleotide exchange assay utilizes a preformed TR-FRET complex containing a specific biotinylated RAS protein (KRAS-WT, G12C/V/D, G13D, HRAS, NRAS; described above) with Bodipy-GDP, and Terbium-streptavidin. Compounds are preincubated with this complex for 60 minutes. Subsequently, recombinant human SOS protein and unlabeled GTP are added to initiate the exchange reaction. Small molecule inhibitors stabilize the Bodipy-GDP complex whereas the untreated protein rapidly exchanges Bodipy-GDP for unlabeled GTP resulting in reduced TR-FRET signal.
(§3) To assemble the preformed TR-FRET complexes, each biotinylated RAS protein is diluted to 2 μM in an EDTA Buffer (20 mM HEPES pH 7.5, 50 mM sodium chloride, 10 mM EDTA, and 0.01% Tween) and incubated at room temperature for one hour. This mixture is then further diluted to 90 nM in an Assay Buffer (20 mM HEPES pH 7.5, 150 mM sodium chloride, 10 mM magnesium chloride, and 0.005% Tween) containing 15 nM of Terbium-Streptavidin (Invitrogen, catalog #PV3577) and 900 nM of Bodipy-GDP (Invitrogen, catalog #G22360) and incubated at room temperature for six hours. It should be noted that this preformed TR-FRET complex for each of the RAS protein were made ahead of time, aliquoted and stored at −80° C. until the day of the experiment.
(§4) Each test compound (10 mM stock in DMSO) is diluted in DMSO to make a final-10-point, 3-fold dilution and is acoustically dispensed into a 384-well assay plate (Corning, catalog #3820) using an Echo 550 (Labcyte). Each well of the assay plate receives 3 μL of a specific 3×RAS preformed TR-FRET complex and 3 μL of Assay Buffer and is incubated at room temperature for 60 minutes (preincubation time). Each well then receives 3 μL of 3× recombinant human SOS protein and GTP (Sigma, G8877) in Assay Buffer and is incubated at room temperature for 30 minutes (G13D), 60 minutes (KRAS WT/G12C/D, H/NRAS) or 90 minutes for G12V. The final reaction in each well of 9 μL consists of 3 mM GTP, specific Ras and SOS proteins in the following concentrations: KRAS-G12C/SOS=3 nM/40 nM, KRAS-WT and G12D/SOS=1 nM/40 nM, KRAS-G12V/SOS=1.25 nM/160 nM, KRAS-G13D/SOS=1.25 nM/0 nM, HRAS and NRAS=1.25 nM/40 nM.
(§5) The time-resolved fluorescence resonance energy transfer (TR-FRET) signal is measured on an Envision (PerkinElmer) plate reader: Excitation filter=340 nm; emission1=495 nm; emission2=520 nm; dichroic mirror=D400/D505; delay time=[…]. The signal of each well is determined as the ratio of the emission at 520 nm to that at 495 nm. Percent effect of each well is determined after normalization to control wells containing DMSO (no effect) or a saturating concentration of inhibitor (max effect). The apparent effect as a function of compound concentration is fit to a four-parameter logistic equation.
(§6) For Example No. 14, nucleotide exchange assays for KRAS G12D, WT, G12C, and G12V were performed according to Procedure B. All the other compounds were tested according to Procedure A.

KRAS WT = KRAS WT (Homo sapiens, UniProt P01116); assay: SOS-catalyzed nucleotide exchange assay, KRAS WT (Procedure A); format: biochemical; conditions: GNE
Sequence of KRAS WT (P01116 with tags, fused parts or gaps isoform P01116-2): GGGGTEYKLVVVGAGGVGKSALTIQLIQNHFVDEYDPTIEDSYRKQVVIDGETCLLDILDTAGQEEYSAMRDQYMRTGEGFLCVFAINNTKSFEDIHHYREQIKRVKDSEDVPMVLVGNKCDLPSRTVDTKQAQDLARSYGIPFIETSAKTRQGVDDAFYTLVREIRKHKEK
Description: as §1, §2, §3, §4, §5, §6

KRAS G12V = KRAS G12V (Homo sapiens, UniProt P01116, G12V); assay: SOS-catalyzed nucleotide exchange assay, KRAS G12V (Procedure A); format: biochemical; conditions: GNE
Sequence of KRAS G12V (P01116 with tags, fused parts or gaps isoform P01116-2 G12V): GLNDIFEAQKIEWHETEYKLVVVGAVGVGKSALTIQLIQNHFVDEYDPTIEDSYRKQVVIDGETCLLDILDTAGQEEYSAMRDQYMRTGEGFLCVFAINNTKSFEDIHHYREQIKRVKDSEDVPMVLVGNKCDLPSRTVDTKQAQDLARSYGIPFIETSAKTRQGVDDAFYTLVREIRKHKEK
Description: as §1, §2, §3, §4, §5, §6

T1 sequence (P01116 1-188 isoform P01116-2 G12D): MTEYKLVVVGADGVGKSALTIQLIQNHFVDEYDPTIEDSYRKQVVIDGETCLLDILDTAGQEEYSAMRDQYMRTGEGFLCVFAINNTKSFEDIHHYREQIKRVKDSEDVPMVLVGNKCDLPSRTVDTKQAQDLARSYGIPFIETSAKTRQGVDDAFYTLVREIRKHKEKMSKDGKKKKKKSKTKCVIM

| Structure (SMILES) | IC50 (AsPC-1 cells) | IC50 (KRAS G12D) | IC50 (KRAS WT) | IC50 (KRAS G12V) |
| --- | --- | --- | --- | --- |
| F[C@H]1CN2CCC[C@@]2(COc2nc(N3C[C@H]4CC[C@@H](C3)N4)c3c(n2)C2(CC2)c2c-3ccnc2-c2c(C3CC3)c(Cl)cc3[nH]ncc23)C1 (single isomer, unassigned) [Ex-115] | 523 nM | 9 nM | 2050 nM | 2120 nM |
| F/C=C1\CN2CCC[C@@]2(COc2nc(N3C[C@H]4CC[C@@H](C3)N4)c3c(n2)C2(CC2)c2c-3ccnc2-c2c(C3CC3)c(Cl)cc3[nH]ncc23)C1 (single isomer, unassigned) [Ex-116] | 373 nM | 3.38 nM | 772 nM | 804 nM |
| Fc1ccc2cc3[nH]ncc3c(-c3nccc4c3C3(CC3)c3nc(OC[C@@]56CCCN5C[C@H](F)C6)nc(N5C[C@H]6CC[C@@H](C5)N6)c3-4)c2c1Cl (single isomer, unassigned) [Ex-117] | 189 nM | 2.4 nM | 369 nM | 859 nM |
| Cc1cc2[nH]ncc2c(-c2nccc3c2sc2nc(OCCC4CCS(=O)(=O)CC4)nc(N4C[C@H]5CC[C@@H](C4)N5)c23)c1C(F)(F)F [Ex-41, 4-(2-((4-((1R,5S)-3,8-diazabicyclo[3.2.1]octan-3-yl)-8-(6-methyl-5-(trifluoromethyl)-1H-indazol-4-yl)pyrido[4′,3′:4,5]thieno[2,3-d]pyrimidin-2-yl)oxy)ethyl)tetrahydro-2H-thiopyran 1,1-dioxide] | > 30000 nM | 4640 nM | – | – |
| CCOC1(COc2nc(N3C[C@H]4CC[C@@H](C3)N4)c3c(n2)sc2c(-c4c(C(F)(F)F)c(C)cc5[nH]ncc45)nccc23)CCOC1 (stereo partly drawn) [Ex-42, 4-((1R,5S)-3,8-diazabicyclo[3.2.1]octan-3-yl)-2-((3-ethoxytetrahydrofuran-3-yl)methoxy)-8-(6-methyl-5-(trifluoromethyl)-1H-indazol-4-yl)pyrido[4′,3′:4,5]thieno[2,3-d]pyrimidine] | 6520 nM | 3100 nM | – | – |
| Cc1cc2[nH]ncc2c(-c2nccc3c2sc2nc(OCC45COC(C4)C5)nc(N4C[C@H]5CC[C@@H](C4)N5)c23)c1C(F)(F)F [Ex-43, 2-((2-oxabicyclo[2.1.1]hexan-4-yl)methoxy)-4-((1R,5S)-3,8-diazabicyclo[3.2.1]octan-3-yl)-8-(6-methyl-5-(trifluoromethyl)-1H-indazol-4-yl)pyrido[4′,3′:4,5]thieno[2,3-d]pyrimidine] | 6830 nM | 2180 nM | – | – |
| COC1(COc2nc(N3C[C@H]4CC[C@@H](C3)N4)c3c(n2)sc2c(-c4c(C(F)(F)F)c(C)cc5[nH]ncc45)nccc23)CCOC1 (stereo partly drawn) [Ex-44, 4-((1R,5S)-3,8-diazabicyclo[3.2.1]octan-3-yl)-2-((3-methoxytetrahydrofuran-3-yl)methoxy)-8-(6-methyl-5-(trifluoromethyl)-1H-indazol-4-yl)pyrido[4′,3′:4,5]thieno[2,3-d]pyrimidine] | 4670 nM | 2640 nM | – | – |
| Cc1cc2[nH]ncc2c(-c2nccc3c2sc2nc(OC[C@H]4C[C@H](C#N)C4)nc(N4C[C@H]5CC[C@@H](C4)N5)c23)c1C(F)(F)F [Ex-45, (1R,3r)-3-(((4-((1R,5S)-3,8-diazabicyclo[3.2.1]octan-3-yl)-8-(6-methyl-5-(trifluoromethyl)-1H-indazol-4-yl)pyrido[4′,3′:4,5]thieno[2,3-d]pyrimidin-2-yl)oxy)methyl)cyclobutane-1-carbonitrile] | 4870 nM | 3010 nM | – | – |
| Cc1cc2[nH]ncc2c(-c2nccc3c2sc2nc(OCC4(C)CCCO4)nc(N4C[C@H]5CC[C@@H](C4)N5)c23)c1C(F)(F)F (stereo partly drawn) [Ex-46, 4-((1R,5S)-3,8-diazabicyclo[3.2.1]octan-3-yl)-8-(6-methy1-5-(trifluoromethyl)-1H-indazol-4-yl)-2-((2-methyltetrahydrofuran-2-yl)methoxy)pyrido[4′,3′:4,5]thi-eno[2,3-d]pyrimidine] | 12600 nM | 2810 nM | – | – |
| Cc1cc2[nH]ncc2c(-c2nccc3c2sc2nc(OC[C@H]4CCCO4)nc(N4C[C@H]5CC[C@@H](C4)N5)c23)c1C(F)(F)F [Ex-47, 4-((1R,5S)-3,8-diazabicyclo[3.2.1]octan-3-yl)-8-(6-methyl-5-(trifluoromethyl)-1H-indazol-4-yl)-2-(((R)-tetrahydrofuran-2-yl)methoxy)pyrido[4′,3′:4,5]thi-eno[2,3-d]pyrimidine] | 11300 nM | 3130 nM | – | – |
| Cc1cc2[nH]ncc2c(-c2nccc3c2sc2nc(OCC4COC(C)(C)CO4)nc(N4C[C@H]5CC[C@@H](C4)N5)c23)c1C(F)(F)F (stereo partly drawn) [Ex-48, 4-((1R,5S)-3,8-diazabicyclo[3.2.1]octan-3-yl)-2-((5,5-dimethy1-1,4-dioxan-2-yl)methoxy)-8-(6-methy1-5-(trifluoromethyl)-1H-indazol-4-yl)pyrido[4′,3′:4,5]thieno[2,3-d]pyrimidine] | 14900 nM | 3350 nM | – | – |
| Cc1cc2[nH]ncc2c(-c2nccc3c2sc2nc(OCC4(C#N)CCOC4)nc(N4C[C@H]5CC[C@@H](C4)N5)c23)c1C(F)(F)F (stereo partly drawn) [Ex-49, 3-(((4-((1R,5S)-3,8-diazabicyclo[3.2.1]octan-3-yl)-8-(6-methyl-5-(trifluoromethyl)-1H-indazol-4-yl)pyrido[4′,3′:4,5]thieno[2,3-d]pyrimidin-2-yl)oxy)methyl)tetrahydrofuran-3-carbonitrile] | 5980 nM | 1460 nM | – | – |
| Cc1cc2[nH]ncc2c(-c2nccc3c2sc2nc(OCC4CCCN(S(C)(=O)=O)C4)nc(N4C[C@H]5CC[C@@H](C4)N5)c23)c1C(F)(F)F (stereo partly drawn) [Ex-50, 4-((1R,5S)-3,8-diazabicyclo[3.2.1]octan-3-yl)-8-(6-methyl-5-(trifluoromethyl)-1H-indazol-4-yl)-2-((1-(methylsulfonyl)piperidin-3-yl)methoxy)pyrido[4′,3′:4,5]thi-eno[2,3-d]pyrimidine] | > 30000 nM | 2380 nM | – | – |
